The results in this text go back to patent publication US9504251B2, “Pesticidal compositions and related methods” (Dow AgroSciences LLC, priority 2014, dated 2016).

Where two headings read alike, the source gives them in different places.

For test [1], the system named is Green Peach Aphid (Myzus persicae) (GPA) (MYZUPE). Description: Green peach aphid (GPA) foliar spray bioassay on cabbage seedlings. It counts as in vivo. As to conditions: 72 h, 200 ppm foliar spray on cabbage seedlings, graded after three days, read-out: GPA % Control (or Mortality) rating. The method, then:
Bioassay for GPA was prepared as follows: Cabbage seedlings grown in 3-inch pots, with 2-3 small (3-5 cm) true leaves, were used as test substrate. The seedlings were infested with 20-50 GPA (adult and nymph stages) one day prior to chemical application. Four pots with individual seedlings were used for each treatment. The tested compounds (2 mg) were dissolved in 2 mL of acetone/methanol (1:1) solvent to form stock solutions of 1000 ppm tested compound. The stock solutions were diluted five times with an aqueous solution containing 0.025% TWEEN® 20 surfactant, which is polyoxyethylene (20) sorbitan monolaurate, to obtain the solution at 200 ppm tested compound. A hand-held aspirator-type sprayer was used for spraying the solution to both sides of cabbage leaves until runoff. The control plants (solvent check) were sprayed with the diluent only containing 20% by volume of acetone/methanol (1:1) solvent. Treated plants were held in a holding room for three days at approximately 25° C. and ambient relative humidity (RH) prior to grading. Evaluation was conducted by counting the number of live aphids per plant under a microscope. Percent control was measured by using Abbott's correction formula (W. S. Abbott, “A Method of Computing the Effectiveness of an Insecticide,” J. Econ. Entomol. 18 (1925), pp. 265-267) as follows. Corrected % Control=100*(X−Y)/X
X=No. of live aphids on solvent check plants and
Y=No. of live aphids on treated plants
(§1) The comparative compounds were tested for insecticidal activities against GPA and WF pests using the same test protocols described above for the disclosed compounds.

Test [2] relates to Sweetpotato Whitefly-crawler (Bemisia tabaci) (WF) (BEMITA). The experiment in a line: Sweetpotato whitefly-crawler (WF) foliar spray assay on cotton plants. It counts as in vivo. As to conditions: 216 h, 200 ppm foliar spray on cotton plants, graded after 9 days, read-out: WF % Control (or Mortality) rating. On the procedure:
Foliar spray assay for WF was prepared as follows: Cotton plants (Gossypium hirsutum) grown in 3-inch pots, with 1 small (4-5 cm) true leaf, were used as test substrate. The plants were infested with 200-400 whitefly eggs 4-5 days prior to chemical application. Four pots with individual plants were used for each treatment. Tested compounds (2 mg) were dissolved in 1 mL of acetone solvent, forming stock solutions of 2000 ppm tested compound.
The stock solutions were diluted ten times with 0.025% TWEEN® 20 surfactant in H2O (diluents) to obtain the solution at 200 ppm tested compound. A hand-held aspirator-type sprayer was used for spraying the solution to both sides of cotton leaves until runoff. The control plants (solvent check) were sprayed with the diluent only containing 10% by volume of acetone solvent. Treated plants were held in a holding room for 9 days at approximately 25° C. and ambient relative humidity (RH) prior to grading. Evaluation was conducted by counting the number of live 3-4 nymph stage per plant under a microscope. Percent control was measured by using Abbott's correction formula (W. S. Abbott, “A Method of Computing the Effectiveness of an Insecticide,” J. Econ. Entomol. 18 (1925), pp. 265-267) as follows. Corrected % Control=100*(X−Y)/X
X=No. of live nymphs on solvent check plants and
Y=No. of live nymphs on treated plants.
as §1

Where [3] appears, read: Abbott-corrected % control, disclosed compounds (TABLE 2).
The mark [4] stands for this setting: same protocol, comparative compounds (TABLE 3).

With `O=C1c2cn(-c3cccnc3)nc2CCN1CC=NOCc1ccccc1` (racemic) [Compound P27, 2-(4-oxo-2-(pyridin-3-yl)-2,4,6,7-tetrahydro-5H-pyrazolo[4,3-c]pyridin-5-yl)acetaldehyde O-benzyl oxime], the mortality at 200 ppm in test [1] (setting [3]) and in test [2] (setting [3]) was 80 to 100% throughout.

Consider `O=C1c2cn(-c3cccnc3)nc2CCN1CC(=NOCc1ccccc1)c1ccccc1` (racemic) [Compound P36, 5-(2-((benzyloxy)imino)-2-phenylethyl)-2-(pyridin-3-yl)-2,5,6,7-tetrahydro-4H-pyrazolo[4,3-c]pyridin-4-one], for which the mortality at 200 ppm in test [1] (setting [3]) fell in the range of 0 to 80%; in test [2] (setting [3]), 80 to 100%.

As for `CON=CCN1CCc2nn(-c3cccnc3)cc2C1=O` (single isomer, unassigned) [Compound P26, 2-(4-oxo-2-(pyridin-3-yl)-2,4,6,7-tetrahydro-5H-pyrazolo[4,3-c]pyridin-5-yl)acetaldehyde O-methyl oxime], the mortality at 200 ppm in test [1] (setting [3]) fell in the range of 80 to 100%. Consider `CON=C(C)CN1CCc2nn(-c3cccnc3)cc2C1=O` (single isomer, unassigned) [Compound P30, 5-(2-(methoxyimino)propyl)-2-(pyridin-3-yl)-2,5,6,7-tetrahydro-4H-pyrazolo[4,3-c]pyridin-4-one], for which the mortality at 200 ppm in test [1] (setting [3]) and in test [2] (setting [3]) was 80 to 100% throughout. On to `CC(CN1CCc2nn(-c3cccnc3)cc2C1=O)=NOCc1ccccc1` (single isomer, unassigned) [Compound P31, 5-(2-((benzyloxy)imino)propyl)-2-(pyridin-3-yl)-2,5,6,7-tetrahydro-4H-pyrazolo[4,3-c]pyridin-4-one], for which the mortality at 200 ppm in test [1] (setting [3]) and in test [2] (setting [3]) was 80 to 100% throughout.

As to `CON=C(CN1CCc2nn(-c3cccnc3)cc2C1=O)c1ccccc1` (single isomer, unassigned) [Compound P32, 5-(2-(methoxyimino)-2-phenylethyl)-2-(pyridin-3-yl)-2,5,6,7-tetrahydro-4H-pyrazolo[4,3-c]pyridin-4-one], the mortality at 200 ppm in test [1] (setting [3]) fell in the range of 80 to 100%; in test [2] (setting [3]) it was 0 to 80%. With `CON=C(CN1CCc2nn(-c3cccnc3)cc2C1=O)c1cccc(C(F)(F)F)c1` (single isomer, unassigned) [Compound P34, 5-(2-(methoxyimino)-2-(3-(trifluoromethyl)phenyl)ethyl)-2-(pyridin-3-yl)-2,5,6,7-tetrahydro-4H-pyrazolo[4,3-c]pyridin-4-one], the mortality at 200 ppm in test [1] (setting [3]) fell in the range of 80 to 100%. Still for that read-out and setting: under `CON=C(CN1CCc2nn(-c3cccnc3)cc2C1=O)c1ccc(C(F)(F)F)cc1` (single isomer, unassigned) [Compound P35, 5-(2-(methoxyimino)-2-(4-(trifluoromethyl)phenyl)ethyl)-2-(pyridin-3-yl)-2,5,6,7-tetrahydro-4H-pyrazolo[4,3-c]pyridin-4-one] stands 80 to 100%. For `O=C1c2cn(-c3cccnc3)nc2CCN1CC(=NOCc1ccccc1)c1cccc(C(F)(F)F)c1` (single isomer, unassigned) [Compound P38, 5-(2-((benzyloxy)imino)-2-(3-(trifluoromethyl)phenyl)ethyl)-2-(pyridin-3-yl)-2,5,6,7-tetrahydro-4H-pyrazolo[4,3-c]pyridin-4-one], the mortality at 200 ppm in test [1] (setting [3]) and in test [2] (setting [3]) was 0 to 80% each time. For the compound `O=C1c2cn(-c3cccnc3)nc2CCN1CC(=NOCc1ccccc1)c1ccc(C(F)(F)F)cc1` (single isomer, unassigned) [Compound P39, 5-(2-((benzyloxy)imino)-2-(4-(trifluoromethyl)phenyl)ethyl)-2-(pyridin-3-yl)-2,5,6,7-tetrahydro-4H-pyrazolo[4,3-c]pyridin-4-one], the mortality at 200 ppm in test [1] (setting [3]) and in test [2] (setting [3]) was 0 to 80% each time. Take `O=C1c2cn(-c3ccccn3)nc2CCN1c1ccc(C(F)(F)F)cn1` [CE6, 2-(2-Pyridyl)-5-[5-(trifluoromethyl)-2-pyridyl]-6,7-dihydropyrazolo[4,3-c]pyridin-4-one, reference compound]: the mortality at 200 ppm was 0 to 80% in test [1] (setting [4]) and less than 0% in test [2] (setting [4]). Consider `CON(C)C(=O)CN1CCc2nn(-c3cccnc3)cc2C1=O` [Compound CA3, N-methoxy-N-methyl-2-(4-oxo-2-(pyridin-3-yl)-2,4,6,7-tetrahydro-5H-pyrazolo[4,3-c]pyridin-5-yl)acetamide], for which the mortality at 200 ppm in test [1] (setting [3]) and in test [2] (setting [3]) was 80 to 100% throughout. `CC(=O)CN1CCc2nn(-c3cccnc3)cc2C1=O` [Compound CA4, 5-(2-oxopropyl)-2-(pyridin-3-yl)-2,5,6,7-tetrahydro-4H-pyrazolo[4,3-c]pyridin-4-one]: the mortality at 200 ppm in test [1] (setting [3]) fell in the range of 80 to 100%. As for `O=C1NCCc2nn(-c3ccccn3)cc21` [Compound CE1, 2-(pyridin-2-yl)-6,7-dihydro-2H-pyrazolo[4,3-c]pyridin-4(5H)-one, reference compound], the mortality at 200 ppm in test [1] (setting [4]) was less than 0%; in test [2] (setting [4]), 0 to 80%. With `CSCN1CCc2nn(-c3ccncc3)cc2C1=O` [Compound CE2, 5-(methylsulfanylmethyl)-2-(4-pyridyl)-6,7-dihydropyrazolo[4,3-c]pyridin-4-one, reference compound], the mortality at 200 ppm in test [1] (setting [4]) and in test [2] (setting [4]) was 0 to 80% each time. Consider `CSCN1CCc2nn(-c3ccccn3)cc2C1=O` [Compound CE3, 5-(Methylsulfanylmethyl)-2-(2-pyridyl)-6,7-dihydropyrazolo[4,3-c]pyridin-4-one, reference compound], for which the mortality at 200 ppm in test [1] (setting [4]) and in test [2] (setting [4]) was less than 0% throughout. With `O=C1c2cn(-c3ccccn3)nc2CCN1c1cccc(OC(F)(F)F)c1` [Compound CE4, 2-(2-Pyridyl)-5-[3-(trifluoromethoxy)phenyl]-6,7-dihydropyrazolo[4,3-c]pyridin-4-one, reference compound], the mortality at 200 ppm in test [1] (setting [4]) and in test [2] (setting [4]) was less than 0% each time.

`O=C1c2cn(-c3ccccn3)nc2CCN1c1cccc(C(F)(F)F)n1` [Compound CE5, reference compound]: the mortality at 200 ppm in test [1] (setting [4]) and in test [2] (setting [4]) was less than 0% in each case. For `O=C1c2cn(-c3ccccn3)nc2CCN1c1cc(C(F)(F)F)ccn1` [Compound CE7, 2-(2-Pyridyl)-5-[4-(trifluoromethyl)-2-pyridyl]-6,7-dihydropyrazolo[4,3-c]pyridin-4-one, reference compound], the mortality at 200 ppm in test [1] (setting [4]) is 0 to 80%; in test [2] (setting [4]), less than 0%. As to `O=C1c2cn(-c3cccnc3)nc2CCN1CC1CC1` [Compound F1, 5-(cyclopropylmethyl)-2-(pyridin-3-yl)-6,7-dihydro-2H-pyrazolo[4,3-c]pyridin-4(5H)-one], the mortality at 200 ppm in test [1] (setting [3]) and in test [2] (setting [3]) was 80 to 100% in each case. Regarding `O=C1NCCc2nn(-c3cccnc3)cc21` [Compound F2, 2-(pyridin-3-yl)-6,7-dihydro-2H-pyrazolo[4,3-c]pyridin-4(5H)-one], the mortality at 200 ppm in test [1] (setting [3]) lay within 80 to 100%; in test [2] (setting [3]) it was 0 to 80%.

Regarding `O=C1c2cn(-c3cccnc3)nc2CCN1Cc1ccc(F)cc1` [Compound F3, 5-(4-fluorobenzyl)-2-(pyridin-3-yl)-6,7-dihydro-2H-pyrazolo[4,3-c]pyridin-4(5H)-one], the mortality at 200 ppm in test [2] (setting [3]) was in the range of 0 to 80%. `O=C(CN1CCc2nn(-c3cccnc3)cc2C1=O)c1cccc(C(F)(F)F)c1` [Compound P20, 5-(2-oxo-2-(3-(trifluoromethyl)phenyl)ethyl)-2-(pyridin-3-yl)-2,5,6,7-tetrahydro-4H-pyrazolo[4,3-c]pyridin-4-one]: in test [1] (setting [3]), the mortality at 200 ppm lay within 80 to 100%.

As for `O=C(CN1CCc2nn(-c3cccnc3)cc2C1=O)c1ccc(C(F)(F)F)cc1` [Compound P21, 5-(2-oxo-2-(4-(trifluoromethyl)phenyl)ethyl)-2-(pyridin-3-yl)-2,5,6,7-tetrahydro-4H-pyrazolo[4,3-c]pyridin-4-one], in test [1] (setting [3]), the mortality at 200 ppm is 80 to 100%.

One may read the mortality as the percentage killed.
